Source: patent publication US8420657B2 (Novartis AG, priority 2008, dated 2013)

Assays:
GST-JAK2(808-1132) = target: T1, GST-JAK2(808-1132) (Homo sapiens, UniProt O60674); assay: JAK2 kinase assay (Caliper mobility shift, LabChip 3000); format: biochemical
T1 construct: GST-JAK2(808-1132); purchased Invitrogen (Carlsbad, USA) #4288
Procedure, shortened: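 Eight-point compound series (final 10–0.003 μM) tested on purchased GST-JAK2 kinase domain (808-1132). Peptide FITC-JAK3tide plus ATP reacted 60 min, 30 °C, then quenched with EDTA; turnover from charge-based separation of substrate and product.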

[1] = tested on: JAK2-dependent nuclear translocation of STAT5-GFP in U-2 OS osteosarcoma cells; assay: STAT5 nuclear translocation assay (Cellomics), rhEpo stimulated U-2 OS STAT5-GFP cells; format: cell-based; conditions: Homo sapiens, U2OS; STAT5 translocation pathway
Procedure, shortened: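 U-2 OS cells stably expressing STAT5a-GFP and EpoR pre-treated with compound (final 10 μM to 0.003 μM, 0.1% DMSO) for 30 min at 37° C., then stimulated 1 h with 5 U/ml rhEpo. Nuclear-cytoplasmic GFP differential quantified by automated imaging (≥1000 cells/well, Hoechst nuclear mask). IC50 from % translocation normalized to untreated and DMSO-stimulated controls.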

T1 sequence (O60674 808-1132): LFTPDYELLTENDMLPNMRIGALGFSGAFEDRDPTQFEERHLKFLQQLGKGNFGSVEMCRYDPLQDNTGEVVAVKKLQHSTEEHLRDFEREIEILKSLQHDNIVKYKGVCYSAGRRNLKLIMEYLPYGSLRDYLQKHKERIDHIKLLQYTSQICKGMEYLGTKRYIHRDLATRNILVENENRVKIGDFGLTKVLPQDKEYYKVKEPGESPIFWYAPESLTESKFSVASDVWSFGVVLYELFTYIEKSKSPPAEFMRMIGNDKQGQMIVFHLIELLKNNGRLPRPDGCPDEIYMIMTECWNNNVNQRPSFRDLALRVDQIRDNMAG

Row | Structure (SMILES) | IC50 (GST-JAK2(808-1132)) | IC50 [1]
1 | OC1CN(Cc2cc(Nc3ncc4ccn(-c5cc(F)c(CN6CCOCC6)c(F)c5)c4n3)ccc2Cl)C1 [Example 400, 1-{2-Chloro-5-[7-(3,5-difluoro-4-morpholin-4-ylmethyl-phenyl)-7H-pyrrolo[2,3-d]pyrimidin-2-ylamino]-benzyl}-azetidin-3-ol] | 7 nM | 1.7 nM
2 | Fc1cc(-n2ccc3cnc(Nc4ccc(Cl)c(CN5CCNCC5)c4)nc32)cc(F)c1CN1CCOCC1 [Example 401, (4-Chloro-3-piperazin-1-ylmethyl-phenyl)-[7-(3,5-difluoro-4-morpholin-4-ylmethyl-phenyl)-7H-pyrrolo[2,3-d]pyrimidin-2-yl]-amine] | 7 nM | 138 nM
3 | Fc1cc(-n2ccc3cnc(Nc4ccnc(CN5CCC(F)(F)C5)c4)nc32)cc(F)c1CN1CCOCC1 [Example 402, [7-(3,5-Difluoro-4-morpholin-4-ylmethyl-phenyl)-7H-pyrrolo[2,3-d]pyrimidin-2-yl]-[2-(3,3-difluoro-pyrrolidin-1-ylmethyl)-pyridin-4-yl]-amine] | ≤ 3 nM | 1370 nM
4 | COC1CN(Cc2cc(Nc3ncc4ccn(-c5cc(F)c(CN6CCOCC6)c(F)c5)c4n3)ccc2C)C1 [Example 405, [7-(3,5-Difluoro-4-morpholin-4-ylmethyl-phenyl)-7H-pyrrolo[2,3-d]pyrimidin-2-yl]-[3-(3-methoxy-azetidin-1-ylmethyl)-4-methyl-phenyl]-amine] | ≤ 3 nM | 3.2 nM
5 | CN1CCN(Cc2cc(Nc3ncc4ccn(-c5ccc(C(=O)N6CCS(=O)(=O)CC6)c(F)c5)c4n3)ccn2)CC1 [Example 406, (1,1-Dioxido-thiomorpholin-4-yl)-(2-fluoro-4-{2-[2-(4-methyl-piperazin-1-ylmethyl)-pyridin-4-ylamino]-pyrrolo[2,3-d]pyrimidin-7-yl}-phenyl)-methanone] | 4 nM | > 4000 nM
6 | Fc1cc(-n2ccc3cnc(Nc4ccnc(CN5CCN(C6CC6)CC5)c4)nc32)cc(F)c1CN1CCOCC1 [Example 407, [2-(4-Cyclopropyl-piperazin-1-ylmethyl)-pyridin-4-yl]-[7-(3,5-difluoro-4-morpholin-4-ylmethyl-phenyl)-7H-pyrrolo[2,3-d]pyrimidin-2-yl]-amine] | ≤ 3 nM | 305 nM
7 | O=C1CNCCN1Cc1cc(Nc2ncc3ccn(-c4cc(F)c(CN5CCOCC5)c(F)c4)c3n2)ccn1 [Example 409, 1-{4-[7-(3,5-Difluoro-4-morpholin-4-ylmethyl-phenyl)-7H-pyrrolo[2,3-d]pyrimidin-2-ylamino]-pyridin-2-ylmethyl}-piperazin-2-one] | ≤ 3 nM | 81.6 nM
8 | Cc1ccc(Nc2ncc3ccn(-c4cc(F)c(CN5CCOCC5)c(F)c4)c3n2)cc1CN1CCN(CCN(C)C)C(=O)C1 [Example 410, 4-{5-[7-(3,5-Difluoro-4-morpholin-4-ylmethyl-phenyl)-7H-pyrrolo[2,3-d]pyrimidin-2-ylamino]-2-methyl-benzyl}-1-(2-dimethylamino-ethyl)-piperazin-2-one] | ≤ 3 nM | 8.3 nM
9 | Cc1ccc(Nc2ncc3ccn(-c4cc(F)c(CN5CCOCC5)c(F)c4)c3n2)cc1Cn1ccnc1 [Example 412, [7-(3,5-Difluoro-4-morpholin-4-ylmethyl-phenyl)-7H-pyrrolo[2,3-d]pyrimidin-2-yl]-(3-imidazol-1-ylmethyl-4-methyl-phenyl)-amine] | ≤ 3 nM | 26.5 nM
10 | Cc1ccc(Nc2ncc3ccn(-c4cc(F)c(CN5CCOCC5)c(F)c4)c3n2)cc1Cn1cccn1 [Example 413, [7-(3,5-Difluoro-4-morpholin-4-ylmethyl-phenyl)-7H-pyrrolo[2,3-d]pyrimidin-2-yl]-(4-methyl-3-pyrazol-1-ylmethyl-phenyl)-amine] | ≤ 3 nM | 28.5 nM
11 | Cc1ccc(Nc2ncc3ccn(-c4cc(F)c(CN5CCOCC5)c(F)c4)c3n2)cc1Cn1cnnc1 [Example 414, [7-(3,5-Difluoro-4-morpholin-4-ylmethyl-phenyl)-7H-pyrrolo[2,3-d]pyrimidin-2-yl]-(4-methyl-3-[1,2,4]triazol-4-ylmethyl-phenyl)-amine] | ≤ 3 nM | 4.2 nM
12 | Cc1ccc(Nc2ncc3ccn(-c4cc(F)c(CN5CCOCC5)c(F)c4)c3n2)cc1CN1CCN(C)CC1=O [Example 415, 1-{5-[7-(3,5-Difluoro-4-morpholin-4-ylmethyl-phenyl)-7H-pyrrolo[2,3-d]pyrimidin-2-ylamino]-2-methyl-benzyl}-4-methyl-piperazin-2-one] | ≤ 3 nM | 6.9 nM
13 | Cc1ccc(Nc2ncc3ccn(-c4cc(F)c(CN5CCOCC5)c(F)c4)c3n2)cc1Cn1cc(CN(C)C)nn1 [Example 418, [7-(3,5-Difluoro-4-morpholin-4-ylmethyl-phenyl)-7H-pyrrolo[2,3-d]pyrimidin-2-yl]-[3-(4-dimethylaminomethyl-[1,2,3]triazol-1-ylmethyl)-4-methyl-phenyl]-amine] | 4.6 nM | 16 nM
14 | Cc1ccc(Nc2ncc3ccn(-c4cc(F)c(CN5CCOCC5)c(F)c4)c3n2)cc1Cn1cc(CO)nn1 [Example 419, (1-{5-[7-(3,5-Difluoro-4-morpholin-4-ylmethyl-phenyl)-7H-pyrrolo[2,3-d]pyrimidin-2-ylamino]-2-methyl-benzyl}-1H-[1 2,3]triazol-4-yl)-methanol] | 4.3 nM | 38.5 nM
15 | Cc1ccc(Nc2ncc3ccn(-c4cc(F)c(CN5CCS(=O)(=O)CC5)c(F)c4)c3n2)cc1CN1CCN(C)CC1 [Example 421, {7-[4-(1,1-Dioxido-thiomorpholin-4-ylmethyl)-3,5-difluoro-phenyl]-7H-pyrrolo[2,3-d]pyrimidin-2-yl}-[4-methyl-3-(4-methyl-piperazin-1-ylmethyl)-phenyl]-amine] | ≤ 3 nM | 2.7 nM
16 | Cc1ccc(Nc2ncc3ccn(-c4cc(F)c(CN5CCS(=O)(=O)CC5)c(F)c4)c3n2)cc1CN1CCN(C)C(=O)C1 [Example 422, 4-(5-{7-[4-(1,1-Dioxido-thiomorpholin-4-ylmethyl)-3,5-difluoro-phenyl]-7H-pyrrolo[2,3-d]pyrimidin-2-ylamino}-2-methyl-benzyl)-1-methyl-piperazin-2-one] | ≤ 3 nM | 5.7 nM
17 | Cc1ccc(Nc2ncc3ccn(-c4cc(F)c(CN5CCS(=O)(=O)CC5)c(F)c4)c3n2)cc1CN1CC(O)C1 [Example 423, 1-(5-{7-[4-(1,1-Dioxido-thiomorpholin-4-ylmethyl)-3,5-difluoro-phenyl]-7H-pyrrolo[2,3-d]pyrimidin-2-ylamino}-2-methyl-benzyl)-azetidin-3-ol] | ≤ 3 nM | 5.9 nM
18 | Fc1cc(-n2ccc3cnc(Nc4ccc5c(c4)C4CCC5N4)nc32)cc(F)c1CN1CCOCC1 (centres unmarked) [Example 424, [7-(3,5-Difluoro-4-morpholin-4-ylmethyl-phenyl)-7H-pyrrolo[2,3-d]pyrimidin-2-yl]-(1,2,3 4-tetrahydro-1,4-epiazano-naphthalen-6-yl)-amine] | ≤ 3 nM | 9 nM
19 | Cc1ccc(Nc2ncc3ccn(-c4cc(F)c(CN5CCS(=O)(=O)CC5)c(F)c4)c3n2)cc1CN1CCNCC1 [Example 428, {7-[4-(1,1-Dioxido-thiomorpholin-4-ylmethyl)-3,5-difluoro-phenyl]-7H-pyrrolo[2,3-d]pyrimidin-2-yl}-(4-methyl-3-piperazin-1-ylmethyl-phenyl)-amine] | ≤ 3 nM | 10.7 nM
